# Data taken from US12157746B2, “Tetrahydro-1H-pyrazino[2,1-a]isoindolylquinoline compounds for the treatment of autoimmune disease” (F. HOFFMANN-LA ROCHE AG, priority 2018, dated 2024).
# Key:
# [1] = biological target: T1, human TLR9 (Homo sapiens, UniProt Q9NR96); test: HEK293-Blue-hTLR-9 cells assay; assay type: cell-based; details: HEK293-Blue-hTLR9 cells, ODN2006 stimulation, 20 hrs, SEAP reporter; read-out: HEK/hTLR9 IC50
# T1 sequence (Q9NR96 26-1032): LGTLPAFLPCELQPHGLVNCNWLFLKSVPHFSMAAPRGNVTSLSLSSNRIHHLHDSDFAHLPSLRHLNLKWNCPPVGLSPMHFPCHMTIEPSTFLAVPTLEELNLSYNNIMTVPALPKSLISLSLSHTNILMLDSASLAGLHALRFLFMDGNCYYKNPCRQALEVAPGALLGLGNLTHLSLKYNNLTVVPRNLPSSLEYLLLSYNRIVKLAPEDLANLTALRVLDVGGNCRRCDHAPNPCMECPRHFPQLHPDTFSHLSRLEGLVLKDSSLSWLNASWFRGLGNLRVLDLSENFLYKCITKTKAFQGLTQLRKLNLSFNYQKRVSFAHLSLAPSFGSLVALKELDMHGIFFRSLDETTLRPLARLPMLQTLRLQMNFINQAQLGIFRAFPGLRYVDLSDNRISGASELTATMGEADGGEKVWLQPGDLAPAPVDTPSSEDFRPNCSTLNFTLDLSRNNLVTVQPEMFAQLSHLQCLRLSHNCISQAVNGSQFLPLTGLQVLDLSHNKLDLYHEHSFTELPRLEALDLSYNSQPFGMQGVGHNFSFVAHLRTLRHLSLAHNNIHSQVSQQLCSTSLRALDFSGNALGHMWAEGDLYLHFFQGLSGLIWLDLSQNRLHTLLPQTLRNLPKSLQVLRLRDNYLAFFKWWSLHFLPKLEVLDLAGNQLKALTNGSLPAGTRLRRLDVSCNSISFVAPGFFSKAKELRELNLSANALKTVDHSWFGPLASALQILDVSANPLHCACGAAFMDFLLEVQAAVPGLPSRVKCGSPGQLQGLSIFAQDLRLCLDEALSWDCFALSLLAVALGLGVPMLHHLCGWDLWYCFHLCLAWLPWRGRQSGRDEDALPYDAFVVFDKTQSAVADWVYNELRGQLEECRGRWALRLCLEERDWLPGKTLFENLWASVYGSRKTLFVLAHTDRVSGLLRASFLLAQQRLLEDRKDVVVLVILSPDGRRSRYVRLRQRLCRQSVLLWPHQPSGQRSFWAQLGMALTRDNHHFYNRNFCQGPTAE
# Outline: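 Antagonist mode in HEK293-Blue hTLR9 reporter cells (SEAP under NF-κB/AP-1 sites), stimulated with ODN2006 added from a 20 uM solution. Serially diluted compound (1% DMSO final) was incubated 20 hrs at 37° C. Supernatant SEAP was developed with QUANTI-Blue for 2 h at 37° C and read at 620˜655 nm.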
# [2] = biological target: T2, hERG K+ channel (Homo sapiens, UniProt Q12809); test: hERG channel inhibition assay; assay type: cell-based; details: patch-clamp (voltage-clamp, whole-cell); for IC50: CHO cells expressing hERG; for IC20: human, CHO cells stably expressing hERG
# T2 construct: expressed in transfected cells; host or cells: CHO (Chinese hamster ovary) cells, CHOhERG
# T2 sequence (Q12809 whole entry): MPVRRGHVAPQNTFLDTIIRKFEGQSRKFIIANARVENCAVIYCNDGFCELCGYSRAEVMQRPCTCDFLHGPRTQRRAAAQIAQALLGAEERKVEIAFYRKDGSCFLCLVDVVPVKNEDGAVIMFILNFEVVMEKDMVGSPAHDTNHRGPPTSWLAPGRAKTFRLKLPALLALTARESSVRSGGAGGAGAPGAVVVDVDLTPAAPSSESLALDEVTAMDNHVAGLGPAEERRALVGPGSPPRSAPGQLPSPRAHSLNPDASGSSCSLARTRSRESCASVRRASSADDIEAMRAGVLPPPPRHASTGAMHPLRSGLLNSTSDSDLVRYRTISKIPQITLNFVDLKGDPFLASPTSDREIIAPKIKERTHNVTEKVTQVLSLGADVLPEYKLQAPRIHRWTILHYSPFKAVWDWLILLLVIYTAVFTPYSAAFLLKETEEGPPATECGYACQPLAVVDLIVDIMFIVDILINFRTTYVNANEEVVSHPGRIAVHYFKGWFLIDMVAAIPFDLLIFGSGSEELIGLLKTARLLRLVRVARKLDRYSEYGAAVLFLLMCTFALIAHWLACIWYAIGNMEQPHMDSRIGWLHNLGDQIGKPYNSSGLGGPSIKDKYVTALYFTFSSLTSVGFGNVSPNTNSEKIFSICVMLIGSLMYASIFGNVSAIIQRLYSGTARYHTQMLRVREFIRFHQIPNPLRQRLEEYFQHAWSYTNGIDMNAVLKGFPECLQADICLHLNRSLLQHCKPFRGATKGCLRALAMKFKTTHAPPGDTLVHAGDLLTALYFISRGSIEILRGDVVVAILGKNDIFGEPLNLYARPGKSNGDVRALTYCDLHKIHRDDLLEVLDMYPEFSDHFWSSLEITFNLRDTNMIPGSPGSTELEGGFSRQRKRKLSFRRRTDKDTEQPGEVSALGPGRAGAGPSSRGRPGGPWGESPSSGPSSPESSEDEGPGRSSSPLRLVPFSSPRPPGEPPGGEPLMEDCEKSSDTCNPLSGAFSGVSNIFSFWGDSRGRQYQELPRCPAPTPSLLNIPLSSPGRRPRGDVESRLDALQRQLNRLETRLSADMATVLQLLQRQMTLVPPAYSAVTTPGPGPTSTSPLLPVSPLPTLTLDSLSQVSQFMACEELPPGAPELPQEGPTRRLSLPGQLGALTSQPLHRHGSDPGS
# Description: hERG Channel Inhibition Assay
# The hERG K^+ channels were cloned in humans and stably expressed in a CHO (Chinese hamster ovary) cell line. CHOhERG cells were used for patch-clamp (voltage-clamp, whole-cell) experiments. Cells were stimulated by a voltage pattern to activate hERG channels and conduct IKhERG currents (rapid delayed outward rectifier potassium current of the hERG channel). After the cells were stabilized for a few minutes, the amplitude and kinetics of IKhERG were recorded at a stimulation frequency of 0.1 Hz (6 bpm). Thereafter, the test compound was added to the preparation at increasing concentrations. For each concentration, an attempt was made to reach a steady-state effect, usually, this was achieved within 3-10 min at which time the next highest concentration was applied. The amplitude and kinetics of IKhERG are recorded in each concentration of the drug which were compared to the control values (taken as 100%). (references: Redfem W S, Carlsson L, Davis A S, Lynch W G, MacKenzie I, Palethorpe S, Siegl P K, Strang I, Sullivan A T, Wallis R, Camm A J, Hammond T G. 2003; Relationships between preclinical cardiac electrophysiology, clinical QT interval prolongation and torsade de pointes for a broad range of drugs: evidence for a provisional safety margin in drug development. Cardiovasc. Res. 58:32-45, Sanguinetti M C, Tristani-Firouzi M. 2006; hERG potassium channels and cardiac arrhythmia. Nature 440:463-469, Webster R, Leishman D, Walker D. 2002; Towards a drug concentration effect relationship for QT prolongation and torsades de pointes. Curr. Opin. Drug Discov. Devel. 5:116-26).
smiles,measurement,setting,value
"CN[C@H]1CN(c2ccc3c(c2)CN2[C@H](C)CN(c4ccc(C#N)c5ncccc45)C[C@H]32)C[C@@H]1O [Example 42, 5-[(4R,10bS)-8-[(3S,4S)-3-hydroxy-4-(methylamino)pyrrolidin-1-yl]-4-methyl-3,4,6,10b-tetrahydro-1H-pyrazino[2,1-a]isoindol-2-yl]quinoline-8-carbonitrile]",IC50,[1],0.0654 µM
same,IC50,[2],> 20 µM
same,IC20,[2],6.7 µM
"C[C@@H]1CN(c2ccc(C#N)c3ncccc23)C[C@@H]2c3ccc(N4C[C@@H](N)[C@H](O)C4)cc3CN12 (single isomer, unassigned) [Example 40B]",IC50,[1],0.0708 µM
same,IC50,[2],> 20 µM
same,IC20,[2],> 10 µM
"C[C@@H]1CN(c2ccc(C#N)c3ncccc23)C[C@@H]2c3ccc(N4CCN[C@H](CO)C4)cc3CN12 [Example 12, 5-[(4R,10bS)-8-[(3S)-3-(hydroxymethyl)piperazin-1-yl]-4-methyl-3,4,6,10b-tetrahydro-1H-pyrazino[2,1-a]isoindol-2-yl]quinoline-8-carbonitrile]",IC50,[1],0.0712 µM
same,IC50,[2],> 20 µM
same,IC20,[2],> 10 µM
"CO[C@@H]1CN(c2ccc3c(c2)CN2[C@H](C)CN(c4ccc(C#N)n5nccc45)C[C@H]32)C[C@H]1N [Example 94, 4-[(4R,10bS)-8-[(3R,4R)-3-amino-4-methoxy-pyrrolidin-1-yl]-4-methyl-3,4,6,10b-tetrahydro-1H-pyrazino[2,1-a]isoindol-2-yl]pyrazolo[1,5-a]pyridine-7-carbonitrile]",IC50,[1],0.149 µM
same,IC50,[2],> 20 µM
same,IC20,[2],> 10 µM
"C[C@@H]1CN(c2ccc(C#N)c3ncccc23)C[C@@H]2c3ccc(N4CC5(CNC5)C4)cc3CN12 [Example 36, 5-[(4R,10bS)-8-(2,6-diazaspiro[3.3]heptan-2-yl)-4-methyl-3,4,6,10b-tetrahydro-1H-pyrazino[2,1-a]isoindol-2-yl]quinoline-8-carbonitrile]",IC50,[1],0.1 µM
same,IC50,[2],> 20 µM
same,IC20,[2],> 10 µM
"CN[C@@H]1CN(c2ccc3c(c2)CN2[C@H](C)CN(c4ccc(C#N)c5ncccc45)C[C@H]32)C[C@H]1O [Example 43, 5-[(4R,10bS)-4-methyl-8-[(3R,4R)-3-hydroxy-4-(methylamino)pyrrolidin-1-yl]-3,4,6,10b-tetrahydro-1H-pyrazino[2,1-a]isoindol-2-yl]quinoline-8-carbonitrile]",IC50,[1],0.0555 µM
same,IC50,[2],> 20 µM
same,IC20,[2],5.2 µM
"C[C@@H]1CN(c2ccc(C#N)c3ncccc23)C[C@@H]2c3ccc(N4C[C@H](N)[C@@](C)(O)C4)cc3CN12 [Example 45B, 5-[(4R,10bS)-8-[(3S,4S)-4-amino-3-hydroxy-3-methyl-pyrrolidin-1-yl]-4-methyl-3,4,6,10b-tetrahydro-1H-pyrazino[2,1-a]isoindol-2-yl]quinoline-8-carbonitrile]",IC50,[1],0.0741 µM
same,IC50,[2],> 20 µM
same,IC20,[2],> 10 µM
"C[C@@H]1CN(c2ccc(C#N)c3ncccc23)C[C@@H]2c3ccc(N4CC5(CCN5)C4)cc3CN12 [Example 37, 5-[(4R,10bS)-8-(1,6-diazaspiro[3.3]heptan-6-yl)-4-methyl-3,4,6,10b-tetrahydro-1H-pyrazino[2,1-a]isoindol-2-yl]quinoline-8-carbonitrile]",IC50,[1],0.103 µM
same,IC50,[2],> 20 µM
same,IC20,[2],8.6 µM
"C[C@@H]1CN(c2ccc(C#N)c3ncccc23)C[C@@H]2c3ccc(N4CC(C)(N)C4)cc3CN12 [Example 39, 5-[(4R,10bS)-8-(3-amino-3-methyl-azetidin-1-yl)-4-methyl-3,4,6,10b-tetrahydro-1H-pyrazino[2,1-a]isoindol-2-yl]quinoline-8-carbonitrile]",IC50,[1],0.123 µM
same,IC50,[2],> 20 µM
same,IC20,[2],> 10 µM
"C[C@@H]1CN(c2ccc(C#N)c3ncccc23)C[C@@H]2c3ccc(NC4CNC4)cc3CN12 [Example 28, 5-[(4R,10S)-8-(azetidin-3-ylamino)-4-methyl-3,4,6,10b-tetrahydro-1H-pyrazino[2,1-a]isoindol-2-yl]quinoline-8-carbonitrile]",IC50,[1],0.0834 µM
same,IC50,[2],> 20 µM
same,IC20,[2],> 10 µM
"C[C@@H]1CN(c2ccc(C#N)c3ncccc23)C[C@@H]2c3ccc(N4CC5CNCC(C4)O5)cc3CN12 [Example 14, 5-[(4R,10bS)-4-methyl-8-(9-oxa-3,7-diazabicyclo[3.3.1]nonan-3-yl)-3,4,6,10b-tetrahydro-1H-pyrazino[2,1-a]isoindol-2-yl]quinoline-8-carbonitrile]",IC50,[1],0.0811 µM
same,IC50,[2],> 20 µM
same,IC20,[2],> 10 µM
"C[C@@H]1CN(c2ccc(C#N)c3ncccc23)C[C@@H]2c3ccc(N4CCNC[C@H](O)C4)cc3CN12 [Example 53A, 5-[(4R,10bS)-8-[(6S)-6-hydroxy-1,4-diazepan-1-yl]-4-methyl-3,4,6,10b-tetrahydro-1H-pyrazino[2,1-a]isoindol-2-yl]quinoline-8-carbonitrile]",IC50,[1],0.056 µM
same,IC50,[2],> 20 µM
same,IC20,[2],6.6 µM
"C[C@@H]1CN(c2ccc(C#N)c3ncccc23)C[C@@H]2c3ccc(N4CCOCC(N)C4)cc3CN12 (stereo partly drawn) [Example 54, 5-[(4R,10bS)-8-(6-amino-1,4-oxazepan-4-yl)-4-methyl-3,4,6,10b-tetrahydro-1H-pyrazino[2,1-a]isoindol-2-yl]quinoline-8-carbonitrile]",IC50,[1],0.0636 µM
same,IC50,[2],> 20 µM
same,IC20,[2],> 10 µM
"C[C@@H]1CN(c2ccc(C#N)c3ncccc23)C[C@@H]2c3ccc(N4CC5(CN(C)C5)C4)cc3CN12 [Example 38, 5-[(4R,10bS)-4-methyl-8-(6-methyl-2,6-diazaspiro[3.3]heptan-2-yl)-3,4,6,10b-tetrahydro-1H-pyrazino[2,1-a]isoindol-2-yl]quinoline-8-carbonitrile]",IC50,[1],0.0668 µM
same,IC50,[2],> 20 µM
same,IC20,[2],> 10 µM
"C[C@@H]1CN(c2ccc(C#N)c3ncccc23)C[C@@H]2c3ccc(N4CCOC[C@@H](N)C4)cc3CN12 [Example 54B, 5-[(4R,10bS)-8-[(6S)-6-amino-1,4-oxazepan-4-yl]-4-methyl-3,4,6,10b-tetrahydro-1H-pyrazino[2,1-a]isoindol-2-yl]quinoline-8-carbonitrile]",IC50,[1],0.0873 µM
same,IC50,[2],> 20 µM
same,IC20,[2],> 10 µM
"C[C@@H]1CN(c2ccc(C#N)c3ncccc23)C[C@@H]2c3ccc(N4CC(N)C4)cc3CN12 [Example 22, 5-[(4R,10bS)-8-(3-aminoazetidin-1-yl)-4-methyl-3,4,6,10b-tetrahydro-1H-pyrazino[2,1-a]isoindol-2-yl]quinoline-8-carbonitrile]",IC50,[1],0.104 µM
same,IC50,[2],> 20 µM
same,IC20,[2],5 µM
"C[C@@H]1CN(c2ccc(C#N)c3ncccc23)CC2c3ccc(N4C[C@H](N)[C@@H](O)C4)cc3CN21 (relative stereo) [Example 21, 5-[(4R,10bS)-8-[trans-3-amino-4-hydroxy-pyrrolidin-1-yl]-4-methyl-3,4,6,10b-tetrahydro-1H-pyrazino[2,1-a]isoindol-2-yl]quinoline-8-carbonitrile]",IC50,[1],0.0561 µM
same,IC50,[2],> 20 µM
same,IC20,[2],> 10 µM
